From patent US5208032A, “Increasing the growth of turkeys using implant of 19-nortestosterone” (Rutgers, The State University of New Jersey, priority 1992, dated 1993)

How the values were obtained:
testosterone antiserum = settings: manufacturer statement; cited from earlier work
[1] = Comparison of effect on growth in castrated male White Leghorn chickens (Study IV, Table II); type: in vivo
Experimental: (§1) The single comb White Leghorn strain (Dekalb XL) of chicken (Avian Services, Frenchtown, N.J.) was used in all studies. Chicks were obtained on the day following hatch and were then maintained in a well ventilated, temperature- and humidity-controlled animal room. Chicks were housed in temperature-controlled (access to small brood chambers--32° to 35° C.), wire-floored, 5-tier brooder batteries (measuring 0.74 W×1.55 L×0.27 H m per tier) until termination of respective studies. A 12 hour light:12 hour dark photoperiod was maintained at all times within the animal room. Feed and water were available ad libitum, with a standard commercial diet (Agway; Bordentown, N.J.), chick starter mash, fed to chicks 1 to 42 days of age, and then from 43 to 84 days, grower mash was provided (manufacturer statement on ration compositions are shown in Table 2).
(§2) Excluding Study II, chicks were either castrated (Quigley, 1967) or sham-operated at 13 days of age. Prior to castration, cockerels were deprived of feed and water for 24 hours in order that the intestines may become empty and thus permit better vision into the body cavity and accessibility to testes. Birds were restrained by fastening the wings and legs with leather straps so that sufficient tension was applied to hold the bird well stretched out in a lateral recumbency (on its left side). Next, an approximate 1 inch incision was made midway between the last two ribs and a small rib spreader inserted to hold the ribs about 1/2 inch apart.
(§3) Forceps were used to remove both testicles, with the lower or left testicle removed first. The forceps were carefully worked over the testicle and so manipulated as to enclose the entire organ. It was then drawn out with a slight twisting motion. At this step, care was taken not to rupture any of the primary blood vessels. When the rib spreader was removed, and the tension on the bird released (i.e., leg and wing straps removed), the skin and thigh muscles slipped back over the incision thus affording a natural protection. No special care was necessary for surgically manipulated birds other than to puncture "air pockets" which developed under the skin due to air escaping from within the abdominal cavity before the incision between the ribs was healed.
(§4) In all studies, chicks were rank-ordered by weight, wing-banded and distributed into treatment groups of equal body weights at 14 days of age. Excluding Study I, e.g., in which male, female and castrate male comparisons were made, all control groups were implanted with 1.0-cm length cholesterol-filled Silastic polysiloxane implants (i.e., steroid surface exposure of 1.0-cm; actual length was 2.0-cm with 1/2 cm wood dowel plugs placed at each end of implant). The remaining treatment groups consisted of chicks (male, female or castrated male) implanted with either testosterone-, 5-alpha-DHT-, 5-beta-DHT-, estradiol-17-beta-, or 19-nortestosterone-filled Silastic polysiloxane implants with steriod surface exposures of either 0.3, 1.0 or 3.0 cm in length. Steroid implants were prepared by manually packing respective crystalline steroids (Steraloids; Wilton, N.H.) into Silastic Medical Grade tubing (1.57 mm i.d.; Dow Corning) (Smith et al., 1977). The amounts of steroid contained in the implants were as follows (mean±SEM of 20 randomly chosen implants, 5 for each steroid): 2.6±0.2 mg (0.3-cm), 8.9±0.4 mg (1.0-cm), and 29.2±0.7 mg 3.0-cm). At the time of group assignment, implants were placed in the subcutaneous (S.C.) layer of skin behind the neck. Supplemental steroid implants (containing doses of steroids equivalent to those of the initial implants) were implanted at 6 and 10 weeks of age, without removal of prior implants, to ensure adequate androgen replacement with increasing growth. Cage floors and fecal collection trays were checked for 2 consecutive days following each implantation session to ensure completeness of procedure. […]

[2] = Comparison of effect of 19-nortestosterone and 5-alpha-DHT on growth in castrated male White Leghorn chickens (Study V, Table III); type: in vivo; settings: for Abdominal Adipose / Final Shank-toe Length / Right Breast Muscle: 6 weeks; for Abdominal Adipose Change / Final 6-week Body Wt. Change / Final Shank-toe Length Change / Right Breast Muscle Change: given unsigned (decrease vs cholesterol); for Final 6-week Body Wt.: minus comb + wattle weight
Experimental: as §1, §2, §3, §4

[3] = Growth promotion and feed efficiency in turkeys (summary in words); type: in vivo
Experimental: A presently preferred dosage in the form of such a subcutaneous implant is at least about 20 mg, with a dosage of about 50 mg being highly suitable. It has been found suitable to administer the 19-nortestosterone subcutaneously, for example, below the ear of the turkey, using conventional implanting devices. The dosage can be administered in the form of an implant device which releases the 19-nortestosterone slowly in a desired constant rate, over a period of time such a about 21 days or more. Desirably, the implant can be in the form of a capsule enveloping the 19-nortestosterone which provides the desired slow, constant release or in the form of a polymer mass pellet having encapsulated or dispersed therein 19-nortestosterone so as to permit by diffusion or slow dissolution release subcutaneously and subsequent systemic absorption. It has been found suitably to use silicone rubber as a polymeric encapsulating material.
It is a natural compound.

[4] = 0.1-cm implant (so in the source)
[5] = 0.3-cm implant, given unsigned (decrease vs cholesterol)
[6] = 3.0-cm implant, given unsigned (decrease vs cholesterol)
[7] = 1.0-cm implant, given unsigned (decrease vs cholesterol)

In the case of C[C@]12CC[C@H]3[C@@H](CCC4=CC(=O)CC[C@@]43C)[C@@H]1CC[C@@H]2O [Testosterone, testosterone], the “cross-reaction with Immuchem testosterone antiserum” value (testosterone antiserum) is listed as 100%, the “6-week Body Wt.” value [1, 4] is listed as 503 ± 10 g and the “12-week Body Wt.” value [1, 4] is listed as 1287 ± 25 g. The “Adipose Abdominal” value [1, 4] was 15 ± 3 g, the “Final 12-week Shank-toe Length” value [1, 4] was 16.9 ± 0.14 cm and the “Right Breast Muscle” value [1, 4] was 61 ± 2 g. For the same molecule, the “Adipose Abdominal Change” value ([1]; 0.1-cm implant (so in the source), given unsigned (decrease vs cholesterol)) was 37.5%, the “6-week Body Wt.” value ([1]; 0.3-cm implant) was 501 ± 13 g and the “12-week Body Wt.” value ([1]; 0.3-cm implant) was 1262 ± 35 g. The “Adipose Abdominal” value ([1]; 0.3-cm implant) was 16 ± 2 g, the “Final 12-week Shank-toe Length” value ([1]; 0.3-cm implant) was 17.0 ± 0.16 cm and the “Right Breast Muscle” value ([1]; 0.3-cm implant) was 61 ± 2 g. The “Adipose Abdominal Change” value [1, 5] was 33.3%, the “6-week Body Wt.” value ([1]; 3.0-cm implant) was 505 ± 13 g and the “12-week Body Wt.” value ([1]; 3.0-cm implant) was 1207 ± 25 g. The “Adipose Abdominal” value ([1]; 3.0-cm implant) was 10 ± 3 g, the “Final 12-week Shank-toe Length” value ([1]; 3.0-cm implant) was 16.4 ± 0.16 cm and the “Right Breast Muscle” value ([1]; 3.0-cm implant) was 55 ± 2 g. For the same molecule, the “12-week Body Wt. Change” value [1, 6] was 5.6%, the “Adipose Abdominal Change” value [1, 6] was 58.3% and the “Final 12-week Shank-toe Length Change” value [1, 6] was 3.5%. The “Right Breast Muscle Change” value [1, 6] was 14.1%.
With C[C@]12CC[C@H]3[C@@H](CCC4=CC(=O)CC[C@@H]43)[C@@H]1CC[C@@H]2O [19-Nortestosterone, 19-nortestosterone] the “Abdominal Adipose” value ([2]; 0.3-cm implant) was 1.26 ± 0.19 g, the “Final Shank-toe Length” value ([2]; 0.3-cm implant) was 10.8 ± 0.13 cm and the “Right Breast Muscle” value ([2]; 0.3-cm implant) was 13.9 ± 1.1 g. The “Abdominal Adipose Change” value ([2]; 0.3-cm implant) was 58%, the “Final 6-week Body Wt. Change” value ([2]; 0.3-cm implant) was 16.9% and the “Final Shank-toe Length Change” value ([2]; 0.3-cm implant) was 9.2%. For the same molecule, the “Right Breast Muscle Change” value ([2]; 0.3-cm implant) was 29.8%, the “Final 6-week Body Wt.” value ([2]; 0.3-cm implant) was 384 ± 18 g and the “Abdominal Adipose” value ([2]; 1.0-cm implant) was 0.26 ± 0.08 g. The “Final Shank-toe Length” value ([2]; 1.0-cm implant) was 10.2 ± 0.12 cm, the “Right Breast Muscle” value ([2]; 1.0-cm implant) was 13.2 ± 0.87 g and the “Abdominal Adipose Change” value ([2]; 1.0-cm implant) was 91%. For the same molecule, the “Final 6-week Body Wt. Change” value ([2]; 1.0-cm implant) was 24.0%, the “Final Shank-toe Length Change” value ([2]; 1.0-cm implant) was 14.3% and the “Right Breast Muscle Change” value ([2]; 1.0-cm implant) was 33.3%. The “Final 6-week Body Wt.” value ([2]; 1.0-cm implant) was 351 ± 13 g, the “Abdominal Adipose” value ([2]; 3.0-cm implant) was 0.58 ± 0.12 g and the “Final Shank-toe Length” value ([2]; 3.0-cm implant) was 9.8 ± 0.17 cm. The “Right Breast Muscle” value ([2]; 3.0-cm implant) was 12.0 ± 0.96 g, the “Abdominal Adipose Change” value ([2]; 3.0-cm implant) was 81% and the “Final 6-week Body Wt. Change” value ([2]; 3.0-cm implant) was 24.5%. The “Final Shank-toe Length Change” value ([2]; 3.0-cm implant) was 17.6%, the “Right Breast Muscle Change” value ([2]; 3.0-cm implant) was 39.4% and the “Final 6-week Body Wt.” value ([2]; 3.0-cm implant) was 349 ± 19 g. For the same molecule, the “results compared with testosterone in turkeys” value ([3]; Table IV and Table V) was “unexpectedly superior advantages”, the “relative amount of fat mass” value ([3]; turkey carcass) was “a lower relative amount of fat mass” and the “growth rate and feed efficiency” value ([3]; turkeys) was “an increase in growth rate and feed efficiency”. For the same molecule, the muscle mass ([3]; turkeys) was “an increase in muscle mass” and the “results in turkeys compared with 19-nortestosterone in chickens” value ([3]; vs chickens (Table III)) was “unexpectedly superior results”.
With C[C@]12CCC(=O)C[C@@H]1CC[C@@H]1[C@@H]2CC[C@]2(C)[C@@H](O)CC[C@@H]12 [5-alpha-DHT, 5-alpha-dihydrotestosterone] the “Abdominal Adipose” value ([2]; 1.0-cm implant) was 2.05 ± 0.12 g, the “Final Shank-toe Length” value ([2]; 1.0-cm implant) was 11.4 ± 0.07 cm and the “Right Breast Muscle” value ([2]; 1.0-cm implant) was 16.3 ± 0.67 g. The “Abdominal Adipose Change” value ([2]; 1.0-cm implant) was 33%, the “Final 6-week Body Wt. Change” value ([2]; 1.0-cm implant) was 8.6% and the “Final Shank-toe Length Change” value ([2]; 1.0-cm implant) was 4.2%. For the same molecule, the “Right Breast Muscle Change” value ([2]; 1.0-cm implant) was 17.7%, the “Final 6-week Body Wt.” value ([2]; 1.0-cm implant) was 422 ± 10 g and the “results when used instead of 19-nortestosterone” value ([3]; turkeys) was “unexpectedly beneficial results”. The “cross-reaction with Immuchem testosterone antiserum” value (testosterone antiserum) was 7.8%, the “6-week Body Wt.” value ([1]; 0.3-cm implant) was 515 ± 10 g and the “12-week Body Wt.” value ([1]; 0.3-cm implant) was 1191 ± 26 g. For the same molecule, the “Adipose Abdominal” value ([1]; 0.3-cm implant) was 10 ± 2 g, the “Final 12-week Shank-toe Length” value ([1]; 0.3-cm implant) was 16.4 ± 0.10 cm and the “Right Breast Muscle” value ([1]; 0.3-cm implant) was 57 ± 2 g. For the same molecule, the “12-week Body Wt. Change” value [1, 5] was 6.9%, the “Adipose Abdominal Change” value [1, 5] was 58.3% and the “Final 12-week Shank-toe Length Change” value [1, 5] was 3.5%. The “Right Breast Muscle Change” value [1, 5] was 10.9%, the “6-week Body Wt.” value ([1]; 1.0-cm implant) was 485 ± 12 g and the “12-week Body Wt.” value ([1]; 1.0-cm implant) was 1140 ± 39 g. The “Adipose Abdominal” value ([1]; 1.0-cm implant) was 6 ± 1 g, the “Final 12-week Shank-toe Length” value ([1]; 1.0-cm implant) was 16.1 ± 0.24 cm and the “Right Breast Muscle” value ([1]; 1.0-cm implant) was 51 ± 3 g. The “12-week Body Wt. Change” value [1, 7] was 10.9%, the “Adipose Abdominal Change” value [1, 7] was 75.0% and the “Final 12-week Shank-toe Length Change” value [1, 7] was 5.3%. The “Right Breast Muscle Change” value [1, 7] was 15.6%, the “6-week Body Wt.” value ([1]; 3.0-cm implant) was 415 ± 15 g and the “12-week Body Wt.” value ([1]; 3.0-cm implant) was 872 ± 53 g. The “Adipose Abdominal” value ([1]; 3.0-cm implant) was 0.5 ± 0.2 g, the “Final 12-week Shank-toe Length” value ([1]; 3.0-cm implant) was 13.7 ± 0.34 cm and the “Right Breast Muscle” value ([1]; 3.0-cm implant) was 36 ± 3 g. For the same molecule, the “6-week Body Wt. Change” value [1, 6] was 19.1%, the “12-week Body Wt. Change” value [1, 6] was 31% and the “Adipose Abdominal Change” value [1, 6] was 97.9%. For the same molecule, the “Final 12-week Shank-toe Length Change” value [1, 6] was 19.4% and the “Right Breast Muscle Change” value [1, 6] was 43.8%.
